The record followed here is ChEMBL document CHEMBL3886578, “Pharmaceutical composition for treating diabetes” (2016).

Molecules are shown by their SMILES.

For the assay, the target named is T1, Glycogen [starch] synthase, muscle (Homo sapiens, UniProt P13807).
T1 sequence (P13807 whole entry): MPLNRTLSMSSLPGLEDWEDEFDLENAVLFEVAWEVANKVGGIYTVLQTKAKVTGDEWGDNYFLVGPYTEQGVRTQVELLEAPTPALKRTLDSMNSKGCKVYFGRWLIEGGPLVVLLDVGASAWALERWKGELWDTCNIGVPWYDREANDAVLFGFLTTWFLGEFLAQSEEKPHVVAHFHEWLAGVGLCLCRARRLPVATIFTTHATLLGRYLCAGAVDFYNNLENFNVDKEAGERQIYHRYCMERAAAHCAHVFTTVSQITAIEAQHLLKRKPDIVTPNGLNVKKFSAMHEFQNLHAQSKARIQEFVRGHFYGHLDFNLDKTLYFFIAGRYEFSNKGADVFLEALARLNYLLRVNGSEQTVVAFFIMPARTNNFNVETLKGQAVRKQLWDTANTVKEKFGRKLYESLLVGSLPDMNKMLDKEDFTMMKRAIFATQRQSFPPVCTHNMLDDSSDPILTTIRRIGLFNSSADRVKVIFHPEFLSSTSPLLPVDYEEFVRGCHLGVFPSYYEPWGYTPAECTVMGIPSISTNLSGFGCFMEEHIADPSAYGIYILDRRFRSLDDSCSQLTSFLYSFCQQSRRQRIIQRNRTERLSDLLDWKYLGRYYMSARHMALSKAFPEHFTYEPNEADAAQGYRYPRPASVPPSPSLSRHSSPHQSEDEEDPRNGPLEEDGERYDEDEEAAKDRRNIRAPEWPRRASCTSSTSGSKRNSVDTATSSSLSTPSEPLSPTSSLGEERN
Description: Glycogen Synthase Activity Assay: To a polystyrene 96-well plate, a solution containing 30 mM glycylglycine (pH 7.3), 40 mM KCl, 20 mM MgCl2, 9.2% DMSO containing one of the test compounds at various concentrations, and 10 mM glucose-6-phosphate (Sigma-Aldrich Corporation, G7879) was added by 12 uL/well. Next, a substrate solution containing 30 mM glycylglycine (pH 7.3), 4.3 mg/mL of glycogen (Sigma-Aldrich Corporation, G8876), 21.6 mM UDP-glucose (Sigma-Aldrich Corporation, U4625), 21.6 mM phosphoenolpyruvic acid (Sigma-Aldrich Corporation, P0564), and 4.05 mM NADH (Sigma-Aldrich Corporation, N8129) was added by 18 uL/well. Further, an enzyme solution containing 50 mM Tris-HCl (pH 8.0), 27 mM DTT (Nacalai Tesque, Inc., 14128-04), 0.2 mg/mL of bovine serum albumin, 0.17 mg/mL of the glycogen synthase, 1.5 uL of a pyruvate kinase/lactate dehydrogenase solution (Sigma-Aldrich Corporation, P0294) was added by 18 uL/well to prepare a reaction solution. After the reaction solution was incubated (at 30° C. for 25 minutes for Examples 1 to 10, at 37° C. for 20 minutes for Examples 11 to 75), the absorbance at 340 nm was measured using Benchmark Plus (Bio-Rad Laboratories, Inc.).

Turning to `O=C(O)[C@@H]1CCCN1C(=O)c1cccc(COc2ccc(-c3cc(F)c(F)c4c3OCC=C4)cc2)c1`, the EC50 came out at 100 nM.
On to `O=C(O)[C@@H]1CCCN1C(=O)c1cccc(COc2ccc(-c3cc(F)cc4c3OCC=C4)cc2)c1`, for which the EC50 was 780 nM.
